For the molecule `*/C(=C(/*)c1ccc(Oc2ccccc2)cc1)c1ccccc1` (repeat unit), the glass transition temperature was 200.00 °C. In the case of `*/C(=C(\[2H])C([2H])([2H])C(*)([2H])[2H])C([2H])([2H])[2H]` (repeat unit) it was -58.00 °C; in that of `*C(=O)Nc1ccc(-c2ccc(NC(=O)c3ccc4c(c3)C(=O)N(c3ccc(Oc5cccc6c(N7C(=O)c8ccc(*)cc8C7=O)cccc56)cc3)C4=O)c(OC)c2)cc1OC` (repeat unit), 304.00 °C. In the case of `*C(=O)Nc1ccc(C2(c3ccc(N4C(=O)c5ccc(*)cc5C4=O)cc3)CC(C)CC(C)(C)C2)cc1` (repeat unit) it was 328.00 °C; in that of `*C(=O)Nc1ccc(C2(c3ccc(N4C(=O)c5ccc(*)cc5C4=O)cc3)CCC(C(C)(C)C)CC2)cc1` (repeat unit), 331.00 °C; in that of `*C(=O)Nc1ccc(C2(c3ccc(N4C(=O)c5ccc(*)cc5C4=O)cc3)CCC(C(C)(C)CC)CC2)cc1` (repeat unit), 342.00 °C. In the case of `*C(=O)Nc1ccc(C2(c3ccc(N4C(=O)c5ccc(*)cc5C4=O)cc3)CCC(C)CC2)cc1` (repeat unit) it was 322.00 °C; in that of `*C(=O)c1ccc2c(c1)C(=O)N(c1cccc(C(c3cccc(N4C(=O)c5ccc(*)cc5C4=O)c3)(C(F)(F)F)C(F)(F)F)c1)C2=O` (repeat unit), 239.00 °C. With `*C(=O)c1ccc2c(c1)C(=O)N(c1cccc(Cc3ccc(Cc4ccc(Cc5cccc(N6C(=O)c7ccc(*)cc7C6=O)c5)cc4)cc3)c1)C2=O` (repeat unit), the glass transition temperature came out at 235.50 °C. In the case of `*C(=O)c1ccc2c(c1)C(=O)N(c1cccc(Nc3nc(Nc4cccc(N5C(=O)c6ccc(*)cc6C5=O)c4)nc(-c4ccccc4)n3)c1)C2=O` (repeat unit) it was 292.00 °C. Take `*C(=O)c1ccc2c(c1)C(=O)N(c1cccc(OP(=O)(Oc3cccc(N4C(=O)c5ccc(*)cc5C4=O)c3)c3ccccc3)c1)C2=O` (repeat unit): the glass transition temperature stood at 176.50 °C. In turn, `*C/C=C/c1cc(C(C)(C)c2ccc(O)c(/C=C/CC3CC(=O)N(c4ccc(Cc5ccc(N6C(=O)CC(*)C6=O)cc5)cc4)C3=O)c2)ccc1O` (repeat unit) displayed a glass transition temperature of 206.00 °C. In the case of `*CCCCCCCCCCCC(=O)Oc1ccc(C(C)(C)c2ccc(C(C)(C)c3ccc(OC(=O)c4ccc5c(c4)C(=O)N(*)C5=O)cc3)cc2)cc1` (repeat unit) it was 97.00 °C. The figure for `*CCN(CCOC(=O)Nc1ccc(-c2ccc(NC(=O)O*)c(C)c2)cc1C)c1ccc(/N=N/c2ccc([N+](=O)[O-])cc2)cc1` (repeat unit) is 119.50 °C. In the case of `*Nc1ccc(-c2ccc(NC(=O)c3cccc(C(*)=O)c3)c(OC)c2)cc1OC` (repeat unit) it was 218.20 °C; in that of `*Nc1ccc(C(C)(C)c2ccc(C(C)(C)c3ccc(Nc4ccc(C(=O)c5ccc(C(=O)c6ccc(*)cc6)cc5)cc4)cc3)cc2)cc1` (repeat unit), 157.00 °C; in that of `*Nc1ccc(C(C)(C)c2ccc(NC(=O)c3cc(C(*)=O)cc(N4C(=O)C=CC4=O)c3)cc2)cc1` (repeat unit), 303.00 °C.

Turning to `*Nc1ccc(C(C)(C)c2ccc(NC(=O)c3cc(NC(=O)c4ccccc4)cc(C(*)=O)c3)cc2)cc1` (repeat unit), the glass transition temperature is 303.50 °C. The figure for `*Nc1ccc(C(C)(C)c2ccc(NC(=O)c3cccc(C(*)=O)c3)cc2)cc1` (repeat unit) is 279.00 °C; for `*Nc1ccc(Nc2ccc(C(O)(c3ccccc3)c3ccc(C(O)(c4ccccc4)c4ccc(*)cc4)cc3)cc2)cc1` (repeat unit) it is 200.00 °C. The figure for `*OC(=O)Oc1ccc(C(C)(C)c2ccc(OC(=O)OC3CC4CC(*)CC(C3)O4)cc2)cc1` (repeat unit) is 194.00 °C; for `*OP(=O)(Oc1ccc(NC(=O)Oc2ccc(C(C)(C)c3ccc(OC(=O)Nc4ccc(*)cc4)cc3)cc2)cc1)c1ccccc1` (repeat unit) it is 34.00 °C; for `*Oc1ccc(C(C)(C)c2ccc(OC(*)=O)c(Cl)c2)cc1` (repeat unit) it is 146.00 °C. The molecule `*Oc1ccc(C(C)(C)c2ccc(OC(*)=O)c(Cl)c2)cc1C` (repeat unit) displayed a glass transition temperature of 138.00 °C. The figure for `*Oc1ccc(C(C)(C)c2ccc(OC(*)=O)c(Cl)c2)cc1Cl` (repeat unit) is 147.00 °C; for `*Oc1ccc(C(C)(C)c2ccc(OC(=O)OC3C(C)(C)C(OC(*)=O)C3(C)C)cc2)cc1` (repeat unit) it is 130.00 °C; for `*Oc1ccc(C(C)(C)c2ccc(OC(=O)OCCCCOC(*)=O)cc2)cc1` (repeat unit) it is 56.50 °C. The figure for `*Oc1ccc(C(C)(C)c2ccc(OC(=O)Oc3ccc(Cc4ccc(OC(*)=O)cc4)cc3)cc2)cc1` (repeat unit) is 107.80 °C; for `*Oc1ccc(C(C)(C)c2ccc(OC(=O)SCCCSC(*)=O)cc2)cc1` (repeat unit) it is 90.00 °C. In the case of `*Oc1ccc(C(C)(C)c2ccc(OC(=O)Sc3ccc(C(C)(C)c4ccc(SC(*)=O)cc4)cc3)cc2)cc1` (repeat unit) it was 154.00 °C. For the molecule `*Oc1ccc(C(C)(C)c2ccc(OC(=O)c3ccc(C(*)=O)cc3)c(C(C)C)c2)cc1C(C)C` (repeat unit), the glass transition temperature was 140.00 °C. In the case of `*Oc1ccc(C(C)(C)c2ccc(OC(=O)c3ccc(C(*)=O)cc3)c(C)c2)cc1C` (repeat unit) it was 178.50 °C; in that of `*Oc1ccc(C(C)(C)c2ccc(OC(=O)c3ccc(C(*)=O)cc3)c(CCCC)c2)cc1CCCC` (repeat unit), 160.00 °C; in that of `*Oc1ccc(C(C)(C)c2ccc(OC(=O)c3ccc(C(*)=O)cc3)c(Cl)c2)cc1Cl` (repeat unit), 190.00 °C. The figure for `*Oc1ccc(C(C)(C)c2ccc(OC(=O)c3ccc(C(C)(C)c4ccc(C(*)=O)cc4)cc3)cc2)cc1` (repeat unit) is 230.00 °C; for `*Oc1ccc(C(C)(CC)c2ccc(OC(*)=O)c(C)c2)cc1C` (repeat unit) it is 119.00 °C. The figure for `*Oc1ccc(C(C)(CC)c2ccc(OC(*)=O)cc2)cc1` (repeat unit) is 136.00 °C. Consider `*Oc1ccc(C(C)(CCC#N)c2ccc(OC(*)=O)c(C)c2)cc1C` (repeat unit), for which the glass transition temperature was 117.00 °C. The figure for `*Oc1ccc(C(CC)(CC)c2ccc(OC(=O)c3ccc(C(*)=O)cc3)cc2)cc1` (repeat unit) is 180.00 °C; for `*Oc1ccc(C(CC)(c2ccccc2)c2ccc(OC(*)=O)cc2)cc1` (repeat unit) it is 147.00 °C; for `*Oc1ccc(C(c2ccc(OC(*)=O)cc2)C2C3CCC(C3)C2C)cc1` (repeat unit) it is 232.00 °C.

`*Oc1ccc(C2(c3ccc(OC(*)=O)cc3)CC(C)CC(C)(C)C2)cc1` (repeat unit): the glass transition temperature came out at 235.50 °C.

Regarding `*Oc1ccc(C2(c3ccc(OC(*)=O)cc3)c3cc(OC)ccc3-c3ccc([N+](=O)[O-])cc32)cc1` (repeat unit), the glass transition temperature was 294.00 °C. Turning to `*Oc1ccc(C2(c3ccc(OC(=O)CCCCC(*)=O)cc3)c3cc(N(C)C)ccc3-c3ccc([N+](=O)[O-])cc32)cc1` (repeat unit), the glass transition temperature was 150.00 °C. In the case of `*Oc1ccc(C2(c3ccc(OC(=O)OC4C(C)(C)C(OC(*)=O)C4(C)C)cc3)CCC(C(C)(C)C)CC2)cc1` (repeat unit) it was 172.00 °C; in that of `*Oc1ccc2ccc(Oc3ccc(C(=O)Nc4ccc(C(C)(C)c5ccc(C(C)(C)c6ccc(NC(=O)c7ccc(*)cc7)cc6)cc5)cc4)cc3)cc2c1` (repeat unit), 155.00 °C; in that of `*c1cc(/C=N/C(=S)Nc2ccc(-n3c(=O)c4cc5c(=O)n(*)c(=O)c5cc4c3=O)cc2)ccc1Cl` (repeat unit), 276.00 °C. Take `*c1ccc(-c2cc(-c3ccc(OCCCC#N)cc3)cc(-c3ccc(N4C(=O)c5ccc(Oc6ccc7c(c6)C(=O)N(*)C7=O)cc5C4=O)cc3)n2)cc1` (repeat unit): the glass transition temperature worked out at 315.00 °C. For `*c1ccc(-c2cc(C(C)(C)C)c(Oc3ccc(N4C(=O)c5ccc(Oc6ccc7c(c6)C(=O)N(*)C7=O)cc5C4=O)cc3C(F)(F)F)c(C(C)(C)C)c2)cc1` (repeat unit), the glass transition temperature was determined as 353.00 °C. In the case of `*c1ccc(-c2cc(C(C)(C)C)c(Oc3ccc(N4C(=O)c5ccc(S(=O)(=O)c6ccc7c(c6)C(=O)N(*)C7=O)cc5C4=O)cc3)c(C(C)(C)C)c2)cc1` (repeat unit) it was 354.50 °C.

In turn, `*c1ccc(-c2cc(C(C)(C)C)c(Oc3ccc(N4C(=O)c5ccc(S(=O)(=O)c6ccc7c(c6)C(=O)N(*)C7=O)cc5C4=O)cc3C(F)(F)F)c(C(C)(C)C)c2)cc1` (repeat unit) gave a glass transition temperature of 365.50 °C. In the case of `*c1ccc(C(C)(C)c2ccc(C(C)(C)c3ccc(N4C(=O)c5ccc(Oc6cccc7c(Oc8ccc9c(c8)C(=O)N(*)C9=O)cccc67)cc5C4=O)cc3)cc2)cc1` (repeat unit) it was 253.00 °C; in that of `*c1ccc(C(C)(C)c2ccc(N3C(=O)c4ccc(Oc5ccc6ccc(Oc7ccc8c(c7)C(=O)N(*)C8=O)cc6c5)cc4C3=O)cc2)cc1` (repeat unit), 247.00 °C; in that of `*c1ccc(C(C)(C)c2ccc(N3C(=O)c4ccc(Oc5cccc6c(Oc7ccc8c(c7)C(=O)N(*)C8=O)cccc56)cc4C3=O)cc2)cc1` (repeat unit), 265.00 °C.

For `*c1ccc(N[Se]Nc2ccc(S(*)(=O)=O)cc2)cc1` (repeat unit), the glass transition temperature amounted to 62.00 °C. In the case of `*c1ccc(Nc2ccc(Nc3ccc(S(*)(=O)=O)cc3)cc2)cc1` (repeat unit) it was 145.00 °C; in that of `*c1ccc(Nc2cccc(Nc3ccc(S(*)(=O)=O)cc3)c2)cc1` (repeat unit), 145.00 °C.

These data come from the PolyMetriX glass transition set.
